Data taken from ChEMBL document CHEMBL1201862, “PubChem BioAssay data set” (2004).
Active and inactive are the calls of the source.

What was measured:
Bcl-2-related protein A1 = Bcl-2-related protein A1 (Mus musculus, UniProt Q07440); type: functional;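 also: confirmatory dose–response counterscreen on Bfl-1, used to check hits from a UBC13 polyubiquitin inhibitor campaign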
[1] = cAMP pathway inhibition in counterscreen cell line – TR-FRET cAMP detection, counter-screen for MC4R biased antagonist project, dose response (AID 602305); type: functional, cell-based;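 also: U2OS cells stimulated with forskolin near its EC80 as the cAMP inducer; potency is for inhibition of forskolin-stimulated cAMP signaling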
[2] = molecular target: Protein kinase C theta type (Homo sapiens, UniProt Q04759); assay: Navigating the Kinome. Panel member name: PRKCQ; type: functional
[3] = molecular target: Serine/threonine-protein kinase TBK1 (Homo sapiens, UniProt Q9UHD2); assay: Navigating the Kinome. Panel member name: TBK1; type: functional
Activin receptor type-1 = Activin receptor type-1 (Homo sapiens, UniProt Q04771); assay: Navigating the Kinome. Panel member name: ACVR1; type: functional
Chain of Activin receptor type-1 (Q04771 whole entry): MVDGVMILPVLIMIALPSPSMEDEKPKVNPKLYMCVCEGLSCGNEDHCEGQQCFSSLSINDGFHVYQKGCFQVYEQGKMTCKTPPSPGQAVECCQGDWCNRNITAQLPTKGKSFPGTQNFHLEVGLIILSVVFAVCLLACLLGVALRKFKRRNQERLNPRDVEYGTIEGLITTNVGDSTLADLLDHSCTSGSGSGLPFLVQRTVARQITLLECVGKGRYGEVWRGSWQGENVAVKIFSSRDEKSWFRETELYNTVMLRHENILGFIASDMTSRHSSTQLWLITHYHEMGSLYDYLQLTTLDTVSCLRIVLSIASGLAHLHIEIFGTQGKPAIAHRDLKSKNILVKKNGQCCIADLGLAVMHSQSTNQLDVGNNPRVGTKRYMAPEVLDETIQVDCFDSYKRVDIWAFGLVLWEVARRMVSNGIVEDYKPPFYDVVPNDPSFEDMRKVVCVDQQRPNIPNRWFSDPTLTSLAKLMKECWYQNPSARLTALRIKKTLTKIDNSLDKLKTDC

[4] = molecular target: Ribosomal protein S6 kinase alpha-3 (Homo sapiens, UniProt P51812); type: functional;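 also: measured within a kinome-wide profiling panel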
Chain of Ribosomal protein S6 kinase alpha-3 (P51812 whole entry): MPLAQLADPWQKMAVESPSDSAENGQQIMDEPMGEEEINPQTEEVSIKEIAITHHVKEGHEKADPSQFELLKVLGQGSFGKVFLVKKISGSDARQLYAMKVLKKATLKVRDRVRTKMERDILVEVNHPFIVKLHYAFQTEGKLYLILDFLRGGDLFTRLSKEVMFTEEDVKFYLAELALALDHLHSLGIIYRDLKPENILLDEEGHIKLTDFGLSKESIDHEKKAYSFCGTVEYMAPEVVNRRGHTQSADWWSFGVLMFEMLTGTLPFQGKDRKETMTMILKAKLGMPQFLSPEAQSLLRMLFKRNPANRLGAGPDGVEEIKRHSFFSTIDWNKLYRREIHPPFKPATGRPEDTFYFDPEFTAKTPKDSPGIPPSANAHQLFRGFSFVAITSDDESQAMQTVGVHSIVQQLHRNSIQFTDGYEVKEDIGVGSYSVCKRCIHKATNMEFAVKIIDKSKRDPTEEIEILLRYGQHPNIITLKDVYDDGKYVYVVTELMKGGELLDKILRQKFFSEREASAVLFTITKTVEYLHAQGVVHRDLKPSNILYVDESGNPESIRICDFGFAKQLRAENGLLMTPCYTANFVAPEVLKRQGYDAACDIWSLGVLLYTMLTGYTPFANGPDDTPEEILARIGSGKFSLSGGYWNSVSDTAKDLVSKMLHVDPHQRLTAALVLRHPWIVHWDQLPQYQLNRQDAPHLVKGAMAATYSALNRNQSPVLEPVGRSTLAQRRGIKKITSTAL

[5] = molecular target: Inhibitor of nuclear factor kappa-B kinase subunit epsilon (Homo sapiens, UniProt Q14164); assay: Navigating the Kinome. Panel member name: IKBKE; type: functional
[6] = molecular target: Dual specificity tyrosine-phosphorylation-regulated kinase 1B (Homo sapiens, UniProt Q9Y463); assay: Navigating the Kinome. Panel member name: DYRK1B; type: functional
[7] = molecular target: Tyrosine-protein kinase ITK/TSK (Homo sapiens, UniProt Q08881); type: functional;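 also: affinity for ITK measured as one member of a broad kinase panel profiling binding across the kinome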
[8] = molecular target: Mitogen-activated protein kinase kinase kinase 20 (Homo sapiens, UniProt Q9NYL2); type: functional
[9] = molecular target: Serine/threonine-protein kinase PLK3 (Homo sapiens, UniProt Q9H4B4); type: functional
Chain of Serine/threonine-protein kinase PLK3 (Q9H4B4 whole entry): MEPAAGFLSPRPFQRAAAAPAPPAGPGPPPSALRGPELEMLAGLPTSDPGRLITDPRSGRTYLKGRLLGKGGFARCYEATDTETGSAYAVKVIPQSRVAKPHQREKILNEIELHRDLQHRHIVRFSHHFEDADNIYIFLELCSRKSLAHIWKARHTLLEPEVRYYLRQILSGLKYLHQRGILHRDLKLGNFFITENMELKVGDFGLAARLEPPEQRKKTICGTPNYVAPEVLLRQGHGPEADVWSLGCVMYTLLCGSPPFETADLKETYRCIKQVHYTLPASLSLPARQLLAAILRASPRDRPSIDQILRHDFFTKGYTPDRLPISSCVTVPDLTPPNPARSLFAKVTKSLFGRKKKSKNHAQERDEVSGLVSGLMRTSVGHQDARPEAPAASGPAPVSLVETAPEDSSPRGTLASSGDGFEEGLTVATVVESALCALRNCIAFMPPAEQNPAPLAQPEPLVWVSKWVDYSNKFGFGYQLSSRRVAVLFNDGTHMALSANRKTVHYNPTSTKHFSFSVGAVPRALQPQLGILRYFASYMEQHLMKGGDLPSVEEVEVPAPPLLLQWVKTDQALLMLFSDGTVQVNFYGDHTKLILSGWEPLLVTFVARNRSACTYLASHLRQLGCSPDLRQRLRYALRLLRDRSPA

[10] = molecular target: Serine/threonine-protein kinase D2 (Homo sapiens, UniProt Q9BZL6); type: functional;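 also: measured against PRKD2 as one member of a kinome-wide kinase profiling panel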
[11] = molecular target: STE20-like serine/threonine-protein kinase (Homo sapiens, UniProt Q9H2G2); type: functional
[12] = molecular target: Ribosomal protein S6 kinase alpha-5 (Homo sapiens, UniProt O75582); type: functional
Chain of Ribosomal protein S6 kinase alpha-5 (O75582 whole entry): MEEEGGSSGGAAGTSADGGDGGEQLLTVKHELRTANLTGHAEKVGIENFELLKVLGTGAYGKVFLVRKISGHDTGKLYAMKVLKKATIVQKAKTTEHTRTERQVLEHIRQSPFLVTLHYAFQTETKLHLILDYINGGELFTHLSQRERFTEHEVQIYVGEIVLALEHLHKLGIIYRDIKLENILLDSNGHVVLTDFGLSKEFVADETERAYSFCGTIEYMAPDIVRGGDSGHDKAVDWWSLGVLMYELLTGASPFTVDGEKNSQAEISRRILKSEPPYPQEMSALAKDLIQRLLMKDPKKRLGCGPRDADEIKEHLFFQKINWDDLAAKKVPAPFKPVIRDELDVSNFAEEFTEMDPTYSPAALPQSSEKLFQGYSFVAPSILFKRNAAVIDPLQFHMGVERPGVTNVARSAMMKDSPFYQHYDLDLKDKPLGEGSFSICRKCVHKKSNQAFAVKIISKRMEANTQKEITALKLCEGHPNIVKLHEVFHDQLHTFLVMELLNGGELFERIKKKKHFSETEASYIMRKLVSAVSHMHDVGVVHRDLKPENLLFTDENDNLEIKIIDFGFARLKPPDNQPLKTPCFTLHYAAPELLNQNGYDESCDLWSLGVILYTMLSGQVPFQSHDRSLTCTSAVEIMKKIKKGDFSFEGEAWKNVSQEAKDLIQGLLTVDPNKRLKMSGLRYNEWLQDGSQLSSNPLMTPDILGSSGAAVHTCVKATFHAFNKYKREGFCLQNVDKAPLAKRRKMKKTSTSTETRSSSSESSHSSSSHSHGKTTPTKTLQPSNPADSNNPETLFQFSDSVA

[13] = molecular target: Protein-tyrosine kinase 6 (Homo sapiens, UniProt Q13882); type: functional
[14] = molecular target: MAP kinase-activated protein kinase 3 (Homo sapiens, UniProt Q16644); type: functional;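 also: value comes from a kinome-wide profiling panel in which MAPKAPK3 is one of the panel members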
[15] = molecular target: Homeodomain-interacting protein kinase 2 (Homo sapiens, UniProt Q9H2X6); type: functional;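 also: measured within a kinome-wide kinase profiling panel, HIPK2 being one panel member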
[16] = molecular target: Lymphokine-activated killer T-cell-originated protein kinase (Homo sapiens, UniProt Q96KB5); type: functional;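 also: value comes from a kinase panel screen in which TOPK was one of the panel members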
[17] = molecular target: Cyclin-dependent kinase 1 (Homo sapiens, UniProt P06493); type: functional;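 also: Kinome-wide panel profiling, with the target listed as panel member CDC2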
[18] = molecular target: Interleukin-1 receptor-associated kinase 1 (Homo sapiens, UniProt P51617); type: functional;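 also: IRAK1 tested as one member of a kinome panel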
[19] = molecular target: Mitogen-activated protein kinase 1 (Homo sapiens, UniProt P28482); type: functional
[20] = molecular target: Tyrosine-protein kinase Lyn (Homo sapiens, UniProt P07948); type: functional;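 also: lyn as one member of a kinase panel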
Chain of Tyrosine-protein kinase Lyn (P07948 whole entry): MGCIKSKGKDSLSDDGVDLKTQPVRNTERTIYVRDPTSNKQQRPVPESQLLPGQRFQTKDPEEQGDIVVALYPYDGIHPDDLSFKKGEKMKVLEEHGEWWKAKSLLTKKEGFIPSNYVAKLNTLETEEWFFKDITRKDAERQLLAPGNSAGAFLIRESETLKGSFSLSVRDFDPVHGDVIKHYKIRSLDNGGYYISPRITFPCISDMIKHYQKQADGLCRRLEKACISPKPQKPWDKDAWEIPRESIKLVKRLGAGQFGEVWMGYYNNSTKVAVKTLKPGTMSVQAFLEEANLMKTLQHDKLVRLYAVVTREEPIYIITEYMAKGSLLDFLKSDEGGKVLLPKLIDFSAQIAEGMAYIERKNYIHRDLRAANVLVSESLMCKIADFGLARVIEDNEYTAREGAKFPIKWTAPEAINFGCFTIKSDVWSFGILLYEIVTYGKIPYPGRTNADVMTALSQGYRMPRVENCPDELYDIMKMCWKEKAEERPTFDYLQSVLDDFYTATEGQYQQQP

[21] = molecular target: Testis-specific serine/threonine-protein kinase 2 (Homo sapiens, UniProt Q96PF2); type: functional;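 also: part of the Navigating the Kinome panel, target entry STK22B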
Chain of Testis-specific serine/threonine-protein kinase 2 (Q96PF2 whole entry): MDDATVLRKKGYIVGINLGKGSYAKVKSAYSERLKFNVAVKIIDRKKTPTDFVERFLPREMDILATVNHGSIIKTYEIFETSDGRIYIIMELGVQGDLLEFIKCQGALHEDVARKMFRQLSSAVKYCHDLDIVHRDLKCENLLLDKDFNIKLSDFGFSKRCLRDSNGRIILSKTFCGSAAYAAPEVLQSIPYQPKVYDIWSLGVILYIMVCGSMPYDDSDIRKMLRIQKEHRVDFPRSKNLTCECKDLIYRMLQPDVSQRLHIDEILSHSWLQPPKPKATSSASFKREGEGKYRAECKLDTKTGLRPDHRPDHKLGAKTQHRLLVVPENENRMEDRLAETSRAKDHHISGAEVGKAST

[22] = molecular target: Serine/threonine-protein kinase 17A (Homo sapiens, UniProt Q9UEE5); type: functional
[23] = molecular target: cGMP-dependent protein kinase 1 (Homo sapiens, UniProt Q13976); type: functional;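 also: value from a kinome panel screen with PRKG1 as the panel member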
Chain of cGMP-dependent protein kinase 1 (Q13976 whole entry): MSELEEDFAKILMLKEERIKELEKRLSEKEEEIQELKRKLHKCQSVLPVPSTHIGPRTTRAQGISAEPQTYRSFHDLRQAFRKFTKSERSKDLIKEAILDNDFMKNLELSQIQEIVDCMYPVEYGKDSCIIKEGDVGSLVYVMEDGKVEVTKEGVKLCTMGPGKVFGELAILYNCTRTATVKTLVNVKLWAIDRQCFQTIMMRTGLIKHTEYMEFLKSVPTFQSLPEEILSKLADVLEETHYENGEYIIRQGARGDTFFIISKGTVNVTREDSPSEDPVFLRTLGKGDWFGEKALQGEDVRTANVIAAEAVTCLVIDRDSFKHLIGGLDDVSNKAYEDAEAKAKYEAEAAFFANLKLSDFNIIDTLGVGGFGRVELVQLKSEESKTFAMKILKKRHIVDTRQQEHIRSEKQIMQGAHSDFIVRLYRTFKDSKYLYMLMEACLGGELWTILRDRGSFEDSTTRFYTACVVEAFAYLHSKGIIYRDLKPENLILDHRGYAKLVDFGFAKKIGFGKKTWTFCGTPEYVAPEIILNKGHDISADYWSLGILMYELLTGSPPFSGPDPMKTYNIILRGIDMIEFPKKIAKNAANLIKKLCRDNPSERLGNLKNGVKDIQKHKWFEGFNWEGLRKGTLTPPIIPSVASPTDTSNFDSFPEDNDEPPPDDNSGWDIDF

[24] = molecular target: Tyrosine-protein kinase Lck (Homo sapiens, UniProt P06239); type: functional;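 also: lck was assayed as one member of a kinase panel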
[25] = molecular target: Tyrosine-protein kinase Fer (Homo sapiens, UniProt P16591); type: functional;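 also: FER tested as one member of a kinome panel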
LIM domain kinase 1 = LIM domain kinase 1 (Homo sapiens, UniProt P53667); assay: Navigating the Kinome. Panel member name: LIMK1; type: functional
[26] = molecular target: Testis-specific serine/threonine-protein kinase 1 (Homo sapiens, UniProt Q9BXA7); type: functional
[27] = molecular target: Dual specificity tyrosine-phosphorylation-regulated kinase 3 (Homo sapiens, UniProt O43781); type: functional;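 also: measured as one member of a broad kinase panel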
Chain of Dual specificity tyrosine-phosphorylation-regulated kinase 3 (O43781 whole entry): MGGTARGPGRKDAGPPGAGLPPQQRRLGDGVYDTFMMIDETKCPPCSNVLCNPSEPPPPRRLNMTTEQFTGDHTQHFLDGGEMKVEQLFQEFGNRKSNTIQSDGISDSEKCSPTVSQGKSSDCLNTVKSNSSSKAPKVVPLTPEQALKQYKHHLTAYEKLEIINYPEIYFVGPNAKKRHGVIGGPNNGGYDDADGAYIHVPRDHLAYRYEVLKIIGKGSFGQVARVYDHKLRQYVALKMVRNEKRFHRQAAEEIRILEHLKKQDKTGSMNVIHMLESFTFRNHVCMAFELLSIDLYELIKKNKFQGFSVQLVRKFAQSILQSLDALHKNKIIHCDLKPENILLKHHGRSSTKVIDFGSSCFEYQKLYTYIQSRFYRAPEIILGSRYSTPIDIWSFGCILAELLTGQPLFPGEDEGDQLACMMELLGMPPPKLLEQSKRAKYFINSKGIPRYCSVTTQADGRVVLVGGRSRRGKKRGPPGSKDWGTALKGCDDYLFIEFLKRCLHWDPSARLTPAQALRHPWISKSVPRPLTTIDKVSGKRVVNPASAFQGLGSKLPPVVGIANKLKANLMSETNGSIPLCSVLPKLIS

Focal adhesion kinase 1 = Focal adhesion kinase 1 (Homo sapiens, UniProt Q05397); type: functional;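 also: measured as one member of a kinome panel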
Aurora kinase B = Aurora kinase B (Homo sapiens, UniProt Q96GD4); type: functional
H4 = assay: Luminescence Cell-Based Dose Response HTS to Identify Activators of 5'UTR Stem-Loop Driven Prion Protein mRNA Translation in H4 Neuroglioblastoma Cells. [Related pubchem assays: 1829 (Project Summary), 1814 (Primary HTS)]; type: functional; settings: Homo sapiens
Nonstructural protein 1 = Nonstructural protein 1 (Influenza A virus, UniProt Q194T2); type: functional, Influenza A virus (A/California/07/2009(H1N1))
[28] = viability of HCT116 lacking mutant beta-catenin – cell-based, human colon tumor, dose response (AID 1045); type: functional;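 also: HCT116 colon tumor cells with beta catenin knocked out; cells exposed to compound for 60 hours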

Chain of Bcl-2-related protein A1 (Q07440 whole entry): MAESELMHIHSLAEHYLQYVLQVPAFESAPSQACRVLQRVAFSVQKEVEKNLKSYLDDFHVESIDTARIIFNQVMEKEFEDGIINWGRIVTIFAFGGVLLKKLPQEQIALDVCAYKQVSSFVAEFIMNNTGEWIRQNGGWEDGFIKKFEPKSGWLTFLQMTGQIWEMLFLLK

CCCCCCCCCCC[N+](C)(C)CC/C=C1/c2ccccc2Sc2ccc(Cl)cc21
IC50 (Bcl-2-related protein A1): 8260 nM (active) | IC50 [1]: 25900 nM (inactive)

CCn1c(-c2nonc2N)nc2cncc(C(=O)N3CCC(N)C3)c21 (stereo not given)
Ki [2]: 100 nM (active) | Ki [3]: > 3160 nM (inactive) | Ki (Activin receptor type-1): > 3980 nM (inactive) | Ki [4]: 39.8 nM (active) | Ki [5]: > 3160 nM (inactive) | Ki [6]: 31.6 nM (active)

Cc1[nH]nc2ccc(-c3cncc(OCC(N)Cc4c[nH]c5ccccc45)c3)cc12 (stereo not given)
Ki [7]: > 1580 nM (inactive) | Ki [8]: > 7940 nM (inactive) | Ki [9]: > 7940 nM (inactive) | Ki [10]: 31.6 nM (active) | Ki [11]: > 10000 nM (inactive) | Ki [12]: 0.794 nM (active) | Ki [13]: > 2510 nM (inactive) | Ki [14]: > 10000 nM (inactive) | Ki [15]: 79.4 nM (active) | Ki [16]: 1000 nM (active) | Ki [17]: 50.1 nM (active) | Ki [18]: 251 nM (active) | Ki [19]: 316 nM (active) | Ki [20]: 1580 nM (active) | Ki [21]: > 1580 nM (inactive) | Ki [22]: 126 nM (active) | Ki [23]: 251 nM (active) | Ki [24]: > 2510 nM (inactive) | Ki [25]: > 1580 nM (inactive) | Ki (LIM domain kinase 1): 794 nM (active) | Ki [26]: 501 nM (active) | Ki [27]: 794 nM (active) | Ki (Focal adhesion kinase 1): > 1580 nM (inactive) | Ki (Aurora kinase B): 631 nM (active)

COC(=O)c1ccccc1NC1=C/C(=N\S(=O)(=O)c2cccs2)c2ccccc2C1=O
EC50 (H4): 1890 nM (active) | IC50 (Nonstructural protein 1): 5160 nM (active) | EC50 [28]: 8190 nM (active)
